Source: PMC3804352 (ACS medicinal chemistry letters, 2013)
“Also recorded” adds a separate entry of the source. Where two headings read alike, the source gives them in different places.

Experiments:
[1] = in mice; cited from earlier work
[2] = in vivo, iv; cited from earlier work
[3] = cited from earlier work
Plasmodium yoelii = assay: In vivo efficacy in mice infected with Plasmodium yoelii, parasite load by FACS; design: species or system Swiss webster female mice
[4] = In vivo pharmacokinetic study, single IV or IP injection to healthy mice
[5] = Stability in mouse serum at 37 °C; type: in vitro ADME
[6] = Metabolism by human liver S9 fraction; type: in vitro ADME
[7] = Metabolism by human liver microsomes; type: in vitro ADME
[8] = Stability in human liver cytosolic fraction; type: in vitro ADME; details: r^2 = 0.24, p = 0.10
[9] = Solubility in aqueous buffers; type: physicochemical
mice = assay: Toxicity to mice in efficacy and PK studies; type: in vivo; details: dosing regime of efficacy study (5-10 mg/kg once daily) and PK study
[10] = type: in vivo, mice; details: at the termination of efficacy trials
human cancer cells = details: cited from earlier work
P. falciparum = details: read-out: in vitro IC50; cited from earlier work
parasitemia = details: cited from earlier work

## C[C@H]1Cc2c([nH]c3cc(Cl)c(F)cc23)[C@@]2(N1)C(=O)Nc1ccc(Cl)cc12 [NITD609, spirotetrahydro-β-carboline NITD609]
[1]
  clearance rate: 9.8 mL/min/kg

## C[C@H]1[C@H](OC(=O)CCC(=O)O)O[C@@H]2O[C@@]3(C)CC[C@H]4[C@H](C)CC[C@@H]1[C@@]24OO3 [artesunate]
[2]
  half-life: less than 10 min

## CCN(CC)CCCC(C)Nc1ccnc2cc(Cl)ccc12 (centres unmarked) [chloroquine]
[3]
  apparent volume of distribution: 200 L/kg

## CC1=C2Cc3cc(ccc3O)C(=O)O[C@H](C(C)(C)Br)CC[C@](C)(O)[C@H](Br)CC[C@]2(C)[C@@H](Br)CC1 [compound 1, bromophycolide A]
Plasmodium yoelii; after the second dose, 10 mg/kg
  parasitemia in treated mice: 10.0 ± 0.5%
Plasmodium yoelii; dosed at 10 mg/kg, control 32 ± 2 %
  final parasitemia (FACS): 17 ± 4%
[4]; IP vs IV dosing
  bioavailability: good bioavailability
[4]; IV, 23 mg/kg, plasma
  Cp^0: 24000 ± 6000 ng/mL
[5]; 37 °C, 24 h (r^2 = 0.20, p=0.27)
  loss after incubation in mouse serum: no significant loss
[5]; over 24 h
  stability in mouse serum: stable
[6]; after 4 h
  metabolism by human liver sub-cellular fractions: negligible metabolism
[6]; human, human liver S9 fraction
  half-life: 9.5 ± 0.8 h
[6]; human, human liver S9 fraction, CLint, S9 fraction with UDPGA
  CLint scaled at 24 h, 10 µM: 1.1 ± 0.1 mL/min/kg
[7]; human, human liver microsomes
  CLint scaled at 24 h, 10 µM: 1.6 ± 0.5 mL/min/kg
[7]; summary statement
  stability in the presence of human microsomes: moderately stable
[8]
  stability in the presence of the human liver cytosolic fraction: stable
[9]
  solubility in aqueous buffers: poor solubility
mice
  toxicity to mice: lack of mouse toxicity; also recorded: non-toxic
[10]
  concentration in blood and plasma of infected mice: below the limit of detection
Human cancer cells
  differential selectivity among eukaryotic cell lines: 10 fold
Human cancer cells; human cancer cells
  IC50: > 6000 nM

## CC[C@H](C)C(=O)O[C@@H]1[C@H]2C(C)=CC(=O)[C@@H](O)[C@]2(C)[C@H]2[C@@H](O)[C@H](O)[C@@]3(C)OC[C@@]24[C@@H]1OC(=O)[C@H](OC(=O)[C@@H](C)CC)[C@@H]34 [simalikalactone E]
P. falciparum
  IC50: 24 to 68 nM
parasitemia; 0.5 mg/kg IP dosing
  reduction of parasitemia in vivo: 50%
parasitemia; 1 mg/kg oral dosing
  reduction of parasitemia in vivo: 50%
